How the values were obtained:
Type in all cases: in vivo
[1] = system: Erysiphe graminis tritici (powdery mildew); test: Test 1 greenhouse foliar spray screen, powdery mildew on wheat; conditions: Blumeria graminis, foliar, Test 1, foliar spray on wheat; disease control rating at 400 ppm / 100 ppm; read-out: POWD MDEW
[2] = system: Pyricularia oryzae (rice blast); test: whole plant or invertebrate; conditions: Pyricularia oryzae, foliar, read-out: RICE BLAST, Test 1, foliar spray on rice; disease control rating at 400 ppm / 100 ppm
[3] = system: Puccinia recondita tritici (leaf rust); test: Test 1 greenhouse foliar spray screen, leaf rust on wheat; conditions: Puccinia recondita, foliar, Test 1, foliar spray on wheat; disease control rating at 400 ppm / 100 ppm
[4] = system: Botrytis cinerea (gray mold); test: Test 1 greenhouse foliar spray screen, gray mold on grape berries; conditions: Botrytis cinerea, foliar; Test 1, spray on grape berries; disease control rating at 400 ppm / 100 ppm
[5] = system: Pseudoperonospora cubensis (downy mildew); test: Test 1 greenhouse foliar spray screen, downy mildew on squash; conditions: Pseudoperonospora cubensis, foliar, Test 1, foliar spray on squash; disease control rating at 400 ppm / 100 ppm; read-out: DOWN MDEW
[6] = system: Cercospora beticola (leaf spot); test: Test 1 greenhouse foliar spray screen, leaf spot on sugar beet; conditions: Cercospora beticola; Test 1, foliar spray on sugar beet; disease control rating at 400 ppm / 100 ppm
[7] = system: Venturia inaequalis (apple scab); test: Test 1 greenhouse foliar spray screen, apple scab on apple seedling; conditions: Venturia inaequalis; Test 1, foliar spray on apple seedling; disease control rating at 400 ppm / 100 ppm; read-out: APPL SCAB
[8] = system: Septoria tritici (leaf blotch); test: Test 1 greenhouse foliar spray screen, leaf blotch on wheat; conditions: Zymoseptoria tritici; Test 1, foliar spray on wheat; disease control rating at 400 ppm / 100 ppm; read-out: LEAF BLOT
[9] = system: southern armyworm (Spodopetra eridania Cramer); test: Mite/insect screen, SAW; conditions: percent mortality, foliar spray on squash; for mortality at 200 ppm / mortality at 400 ppm: Spodoptera eridania, foliar, read-out: SAW RESULTS %; for mortality at 200 ppm: rate 200 ppm
Summary of the method: (§1)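 Compounds dissolved in acetone/alcohol (50:50) with TOXIMUL R and S emulsifiers, diluted in water to test concentrations, and sprayed to runoff on both leaf surfaces at 10 psi, then dried 1 h. For armyworm, excised treated leaves were offered to larvae; percent mortality scored after standard exposure periods.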

[10] = system: Twospotted spider mites (Tetranychus urticae Koch); test: Mite/insect screen, SM; conditions: for mortality at 200 ppm / mortality at 400 ppm: Tetranychus urticae, foliar, read-out: SM RESULTS %; for mortality at 200 ppm: rate 200 ppm; for activity as miticides: summary statement in the description
Summary of the method: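 Compounds dissolved in 50:50 acetone/alcohol containing sulfonate/nonionic emulsifier blends, then diluted with water to the indicated concentrations. Leaves sprayed on both surfaces to runoff at 10 psi and dried one hour. Percent mortality scored after standard exposure periods.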

[11] = system: melon aphids (Aphis gossypii Glover); test: Mite/insect screen, MA; conditions: Aphis gossypii, foliar, percent mortality, foliar spray on squash, read-out: MA RESULTS %; for mortality at 200 ppm: rate 200 ppm; for mortality at 400 ppm: rate 400 ppm
Summary of the method: as §1

corn rootworm = test: Mite/insect screen, CRW; conditions: percent mortality, read-out: CRW RESULTS %; for mortality at 12 ppm: CRW rate 12.00 ppm; for mortality at 24 ppm: CRW rate 24.00 ppm
Summary of the method: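 Compounds dissolved in 50:50 acetone/alcohol with TOXIMUL R and S emulsifiers (23 and 13 g/L), then diluted in water to the stated test concentrations. Percent mortality of corn rootworm scored after standard exposure periods.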

[12] = percent mortality, foliar spray on squash
[13] = percent mortality, rate 400 ppm, foliar spray on squash

| Compound | pest or weed control at 400 ppm [1] [%] | pest or weed control at 400 ppm [2] [%] | pest or weed control at 400 ppm [3] [%] | pest or weed control at 400 ppm [4] [%] | pest or weed control at 400 ppm [5] [%] | pest or weed control at 400 ppm [6] [%] | pest or weed control at 400 ppm [7] [%] | pest or weed control at 400 ppm [8] [%] | mortality at 200 ppm [9] [%] | mortality at 400 ppm ([9]; rate 400 ppm) [%] | mortality at 200 ppm [10, 12] [%] | mortality at 400 ppm [10, 13] [%] | activity as miticides [10] | mortality at 200 ppm [11] [%] | mortality at 400 ppm [11] [%] | mortality at 12 ppm (corn rootworm) [%] | mortality at 24 ppm (corn rootworm) [%] | SAW RESULTS % ([9]; rate 400 ppm) [%] | SM RESULTS % [10, 13] [%] |
| --- | --- | --- | --- | --- | --- | --- | --- | --- | --- | --- | --- | --- | --- | --- | --- | --- | --- | --- | --- |
| Clc1ccc2c(OCCc3ccc(-c4ccccc4)cc3)ccnc2c1 [Example 230, 7-chloro-4-[2-(1,1'-biphenyl)-4-yl-ethoxy]quinoline] | 90 to 100 | 0 to 19 | 20 to 89 | 0 to 19 | 0 to 19 | 0 to 19 | 0 to 19 | 0 to 19 | 0 | 0 | 100 | 80 | particularly excellent activity | 90 | 0 | 0 | 0 | – | – |
| Fc1ccc2c(OCCc3ccc(-c4ccccc4)cc3)ccnc2c1 [Example 233, 4-[2-(1,1'-biphenyl)-4-ylethoxy]-7-fluoroquinoline] | 20 to 89 | 90 to 100 | 90 to 100 | 0 to 19 | 20 to 89 | 0 to 19 | 0 to 19 | 20 to 89 | 0 | 0 | 100 | 80 | particularly excellent activity | 50 | 80 | 0 | 0 | – | – |
| Fc1ccc2c(OCCc3ccc(Cl)cc3)ccnc2c1 [Example 234, 4-[2-(4-chlorophenyl)ethoxy]-7-fluoroquinoline] | 20 to 89 | 20 to 89 | 90 to 100 | 0 to 19 | 20 to 89 | 20 to 89 | 0 to 19 | 20 to 89 | 60 | 0 | 50 | 30 | – | 50 | 100 | 0 | 0 | – | – |
| Cc1ccc(CCOc2ccnc3cc(F)ccc23)cc1 [Example 235, 7-fluoro-4-[2-(4-methylphenyl)ethoxy]quinoline] | 20 to 89 | 90 to 100 | 90 to 100 | 0 to 19 | 20 to 89 | 0 to 19 | 0 to 19 | 20 to 89 | 80 | 0 | 0 | 0 | – | 0 | 50 | 0 | 0 | – | – |
| Fc1ccc(CCOc2ccnc3cc(Cl)ccc23)cc1 [Example 236, 7-chloro-4-[2-(4-fluorophenyl)ethoxy]quinoline] | 90 to 100 | 0 to 19 | 20 to 89 | 0 to 19 | 0 to 19 | 0 to 19 | 0 to 19 | 0 to 19 | 0 | 0 | 0 | 0 | – | 0 | – | 0 | – | 0 | 0 |
| Fc1cccc2c(OCCc3cccc4ccccc34)ccnc12 [Example 244, 8-fluoro-4-[2-(1-naphthyl)ethoxy]quinoline] | 20 to 89 | 90 to 100 | 20 to 89 | 0 to 19 | 20 to 89 | 0 to 19 | 0 to 19 | 20 to 89 | 0 | – | 0 | – | – | 40 | – | 0 | – | – | – |
